The compounds below were run on LS513 KRAS G12V (colon) (assay: MTT assay). Details: Homo sapiens, LS-513, 72 h, Table 4; 3 days incubation; read-out: MTT assay IC50 KRAS mutant (Colon) LS513 KRAS G12V.
Assay type: cell-based
Experimental: MTT assay is frequently used for the purpose of primary screening for the sensitivity of anticancer agents and to examine cytotoxicity. When cancer cells are treated with varying concentrations of any anticancer agent for a predetermined time to induce death of the cells and are then treated with MTT, and when the formation of formazan is measured, the concentration of the anticancer agent, at which about 50% of the cells survive, can be determined. This concentration value is called IC50. IC50 values differ between drugs, and thus can be characteristic of the drugs. Using this method, the effects of anticancer agents against cell proliferation can be quantitatively compared. Thus, in order to measure the cytotoxicity of samples, MTT assay was performed using CellTiter 96 Non-radioactive Cell Proliferation Assay Kit (Promega).
Cells in a cell suspension were counted with a hematocytometer, and then 200 μL of the cell suspension was added to each well of a 96 well plate at a desired concentration (cell amount determined depending on a cell line). After cell seeding, the cells were incubated in a CO2 incubator at 37° C. overnight. After one day of cell stabilization, the cells were treated with desired concentrations of the compounds. The cells were incubated in a CO2 incubator at 37° C. for 3 days, and then the sample was removed, and 200 μL of MTT solution was added to each well. After 2 hours of incubation, the MTT dilution was carefully shaken, and 200 μL of DMSO was added to each well, followed by shaking with a plate shaker for 60 minutes.
Work on `Cc1cn(-c2cc(C(=O)Nc3ccc(F)c(Nc4ncccc4-c4ncnc5[nH]cnc45)c3F)cc(C(F)(F)F)c2)cn1` [Example 2, N-(3-(3-(9H-purin-6-yl)pyridin-2-ylamino)-2,4-difluorophenyl)-3-(4-methyl-1H-imidazol-1-yl)-5-(trifluoromethyl)benzamide] yielded an IC50 of over 10000 nM.
Compound `CCN1CCN(Cc2ccc(C(=O)Nc3ccc(F)c(Nc4ncccc4-c4ncnc5[nH]cnc45)c3F)cc2C(F)(F)F)CC1` [Example 3, N-(3-(3-(9H-purin-6-yl)pyridin-2-ylamino)-2,4-difluorophenyl)-4-((4-ethylpiperazin-1-yl)methyl)-3-(trifluoromethyl)benzamide] has an IC50 of 4030 nM.
`CC(C)C(=O)Nc1ccc(F)c(Nc2ncccc2-c2ncnc3[nH]cnc23)c1F` [Example 4, N-(3-(3-(9H-purin-6-yl)pyridin-2-ylamino)-2,4-difluorophenyl)isobutylamide] showed an IC50 of over 10000 nM.
With `O=C(Nc1ccc(F)c(Nc2ncccc2-c2ncnc3[nH]cnc23)c1F)c1cccs1` [Example 5, N-(3-(3-(9H-purin-6-yl)pyridin-2-ylamino)-2,4-difluorophenyl)thiophene-2-carboxamide] the IC50 was over 10000 nM.
Compound `O=C(Nc1ccc(F)c(Nc2ncccc2-c2ncnc3[nH]cnc23)c1F)c1ccco1` [Example 6, N-(3-(3-(9H-purin-6-yl)pyridine-2-ylamino)-2,4-difluorophenyl)furan-2-carboxamide] has an IC50 of over 10000 nM.
In the case of `O=C(Nc1ccc(F)c(Nc2ncccc2-c2ncnc3[nH]cnc23)c1F)c1ccno1` [Example 7, N-(3-(3-(9H-purin-6-yl)pyridin-2-ylamino)-2,4-difluorophenyl)isoxazole-5-carboxamide], the IC50 is reported as over 10000 nM.
In the case of `O=C(Nc1ccc(F)c(Nc2ncccc2-c2ncnc3[nH]cnc23)c1F)c1cncs1` [Example 8, N-(3-(3-(9H-purin-6-yl)pyridin-2-ylamino)-2,4-difluorophenyl)thiazole-5-carboxamide], the IC50 is reported as over 10000 nM.
For `CN1CCN(c2cc(C(=O)Nc3ccc(F)c(Nc4ncccc4-c4ncnc5[nH]cnc45)c3F)cc(C(F)(F)F)c2)CC1` [Example 10, N-(3-(3-(9H-purin-6-yl)pyridin-2-ylamino)-2,4-difluorophenyl)-3-(4-methylpiperazin-1-yl)-5-(trifluoromethyl)benzamide], the IC50 was 1170 nM.
For `O=C(Nc1ccc(F)c(Nc2ncccc2-c2ncnc3[nH]cnc23)c1F)c1cc(N2CCSCC2)cc(C(F)(F)F)c1` [Example 11, N-(3-(3-(9H-purin-6-yl)pyridin-2-ylamino)-2,4-difluorophenyl)-3-thiomorpholino-5-(trifluoromethyl)benzamide], the IC50 was 996 nM.
`O=C(Nc1ccc(F)c(Nc2ncccc2-c2ncnc3[nH]cnc23)c1F)c1cc(N2CCC(O)CC2)cc(C(F)(F)F)c1` [Example 12, N-(3-(3-(9H-purin-6-yl)pyridin-2-ylamino)-2,4-difluorophenyl)-3-(4-hydroxypiperidin-1-yl)-5-(trifluoromethyl)benzamide] gave an IC50 of 1020 nM.
In the case of `CC1CCN(c2cc(C(=O)Nc3ccc(F)c(Nc4ncccc4-c4ncnc5[nH]cnc45)c3F)cc(C(F)(F)F)c2)CC1` [Example 13, N-(3-(3-(9H-purin-6-yl)pyridin-2-ylamino)-2,4-difluorophenyl)-3-(4-methylpiperidin-1-yl)-5-(trifluoromethyl)benzamide], the IC50 is reported as 1150 nM.
In the case of `O=C(Nc1ccc(F)c(Nc2ncccc2-c2ncnc3[nH]cnc23)c1F)c1ccc(N2CCSCC2)c(C(F)(F)F)c1` [Example 14, N-(3-(3-(9H-purin-6-yl)pyridin-2-ylamino)-2,4-difluorophenyl)-4-thiomorpholino-3-(trifluoromethyl)benzamide], the IC50 is reported as 851 nM.
`CC1CCN(c2ccc(C(=O)Nc3ccc(F)c(Nc4ncccc4-c4ncnc5[nH]cnc45)c3F)cc2C(F)(F)F)CC1` [Example 15, N-(3-(3-(9H-purin-6-yl)pyridin-2-ylamino)-2,4-difluorophenyl)-4-(4-methylpeperidin-1-yl)-3-(trifluoromethyl)benzamide] showed an IC50 of 1670 nM.
`O=C(Nc1ccc(F)c(Nc2ncccc2-c2ncnc3[nH]cnc23)c1F)c1ccc(Cl)c(C(F)(F)F)c1` [Example 16, N-(3-(3-(9H-purin-6-yl)pyridin-2-ylamino)-2,4-difluorophenyl)-4-chloro-3-(trifluoromethyl)benzamide] was tested, and the IC50 was 2780 nM.
Compound `O=C(Nc1ccc(F)c(Nc2ncccc2-c2ncnc3[nH]cnc23)c1F)c1ccc2c(c1)OCCO2` [Example 17, N-(3-(3-(9H-purin-6-yl)pyridin-2-ylamino)-2,4-difluorophenyl)-2,3-dihydrobenzo[b][1,4]dioxine-6-carboxamide] has an IC50 of 1160 nM.
For `O=C(Nc1ccc(F)c(Nc2ncccc2-c2ncnc3[nH]cnc23)c1F)c1cc(N2CCOCC2)cc(C(F)(F)F)c1` [Example 18, N-(3-(3-(9H-purin-6-yl)pyridin-2-ylamino)-2,4-difluorophenyl)-3-morpholino-5-(trifluoromethyl)benzamide], the IC50 was 3020 nM.
In the case of `O=C(Nc1ccc(F)c(Nc2ncccc2-c2ncnc3[nH]cnc23)c1F)c1ccc(N2CCCC2)c(C(F)(F)F)c1` [Example 19, N-(3-(3-(9H-purin-6-yl)pyridin-2-ylamino)-2,4-difluorophenyl)-4-(pyrrolidin-1-yl)-3-(trifluoromethyl)benzamide], the IC50 is reported as 939 nM.
In the case of `N#CC1(c2cccc(C(=O)Nc3ccc(F)c(Nc4ncccc4-c4ncnc5[nH]cnc45)c3F)c2)CC1` [Example 20, N-(3-(3-(9H-purin-6-yl)pyridin-2-ylamino)-2,4-difluorophenyl)-3-(1-cyanocyclopropyl)benzamide], the IC50 is reported as 2600 nM.
In the case of `CC(C)(C(N)=O)c1cccc(C(=O)Nc2ccc(F)c(Nc3ncccc3-c3ncnc4[nH]cnc34)c2F)c1` [Example 22, N-(3-(3-(9H-purin-6-yl)pyridin-2-ylamino)-2,4-difluorophenyl)-3-(1-amino-2-methyl-1-oxopropan-2-yl)benzamide], the IC50 is reported as over 10000 nM.
For `CC(C)(C#N)c1cccc(C(=O)Nc2cc(Nc3ncccc3-c3ncnc4[nH]cnc34)ccc2Cl)c1` [Example 24, N-(5-(3-(9H-purin-6-yl)pyridin-2-ylamino)-2-chlorophenyl)-3-(2-cyanopropan-2-yl)benzamide], the IC50 was 476 nM.
`CC(C)(C#N)c1cccc(C(=O)Nc2c(F)ccc(Nc3ncccc3-c3ncnc4[nH]cnc34)c2F)c1` [Example 25, N-(3-(3-(9H-purin-6-yl)pyridin-2-ylamino)-2,6-difluorophenyl)-3-(2-cyanopropan-2-yl)benzamide] showed an IC50 of over 10000 nM.
In the case of `O=C(Nc1ccc(F)c(Nc2ncccc2-c2ncnc3[nH]cnc23)c1F)c1ccccc1C(F)(F)F` [Example 26, N-(3-(3-(9H-purin-6-yl)pyridin-2-ylamino)-2,4-difluorophenyl)-2-(trifluoromethyl)benzamide], the IC50 is reported as over 10000 nM.
With `O=C(Nc1ccc(F)c(Nc2ncccc2-c2ncnc3[nH]cnc23)c1F)c1ccc(C(F)(F)F)cc1` [Example 27, N-(3-(3-(9H-purin-6-yl)pyridin-2-ylamino)-2,4-difluorophenyl)-4-(trifluoromethyl)benzamide] the IC50 was over 10000 nM.
`O=C(Nc1ccc(F)c(Nc2ncccc2-c2ncnc3[nH]cnc23)c1F)c1cc(F)cc(C(F)(F)F)c1` [Example 28, N-(3-(3-(9H-purin-6-yl)pyridin-2-ylamino)-2,4-difluorophenyl)-3-fluoro-5-(trifluoromethyl)benzamide] was tested, and the IC50 was 958 nM.
In the case of `CC(C)(C#N)c1cccc(C(=O)Nc2cccc(Nc3ncccc3-c3ncnc4[nH]cnc34)c2F)c1` [Example 29, N-(3-(3-(9H-purin-6-yl)pyridin-2-ylamino)-2-fluorophenyl)-3-(2-cyanopropan-2-yl)benzamide], the IC50 is reported as 978 nM.
Compound `O=C(Nc1cc(Nc2ncccc2-c2ncnc3[nH]cnc23)c(F)cc1F)c1cccc(C(F)(F)F)c1` [Example 31, N-(5-(3-(9H-Purin-6-Yl)Pyridin-2-Ylamino)-2,4-Difluorophenyl)-3-(Trifluoromethyl)Benzamide] has an IC50 of over 10000 nM.
Compound `CC(C)(C#N)c1cccc(C(=O)Nc2cc(Nc3ncccc3-c3ncnc4[nH]cnc34)c(F)cc2F)c1` [Example 32, N-(5-(3-(9H-Purin-6-Yl)Pyridin-2-Ylamino)-2,4-Difluorophenyl)-3-(2-Cyanopropan-2-Yl)Benzamide] has an IC50 of 173 nM.
`O=C(Nc1ccc(F)c(Nc2ncccc2-c2ncnc3[nH]cnc23)c1F)c1cccc([N+](=O)[O-])c1` [Example 34, N-(3-(3-(9H-Purin-6-Yl)Pyridin-2-Ylamino)-2,4-Difluorophenyl)-3-Nitrobenzamide] showed an IC50 of over 10000 nM.
With `COc1cccc(C(=O)Nc2ccc(F)c(Nc3ncccc3-c3ncnc4[nH]cnc34)c2F)c1` [Example 35, N-(3-(3-(9H-Purin-6-Yl)Pyridin-2-Ylamino)-2,4-Difluorophenyl)-3-Methoxybenzamide] the IC50 was over 10000 nM.
Compound `N#Cc1cccc(C(=O)Nc2ccc(F)c(Nc3ncccc3-c3ncnc4[nH]cnc34)c2F)c1` [Example 37, N-(3-(3-(9H-Purin-6-Yl)Pyridin-2-Ylamino)-2,4-Difluorophenyl)-3-Cyanobenzamide] has an IC50 of over 10000 nM.
`COc1ccc(C(=O)Nc2ccc(F)c(Nc3ncccc3-c3ncnc4[nH]cnc34)c2F)cc1C(F)(F)F` [Example 38, N-(3-(3-(9H-Purin-6-Yl)Pyridin-2-Ylamino)-2,4-Difluorophenyl)-4-Methoxy-3-(Trifluoromethyl)Benzamide] was tested, and the IC50 was 1860 nM.

Reference: patent publication US10844062B2, “Pyridine derivative inhibiting RAF kinase and vascular endothelial growth factor receptor, method for preparing same, pharmaceutical composition containing same, and use thereof” (SAMJIN PHARMACEUTICAL CO., LTD., priority 2016, dated 2020)
